Data on six molecules can be found in EPA's ToxRefDB 2.

Data set [1] concerns primate. As to conditions: Sub-acute repeat dose toxicity; macaque; Oral; Gavage/Intubation; dose end: 35 day; group: systemic; systemic / clinical chemistry / bilirubin / total bilirubin.
Data set [2] deals with rat. As to conditions: Fertility (Segment I), sprague dawley, Oral, Gavage/Intubation, dose end: 6 GD.
For data set [3], the system named is rat. As to conditions: Fertility (Segment I), sprague dawley, Oral, Gavage/Intubation, dose end: 63 day, group: parental.
Data set [4] relates to dog. Particulars: Chronic toxicity, beagle, Oral, Gavage/Intubation, dose end: 26 week, group: systemic.
Data set [5] deals with rat. As to conditions: Chronic toxicity; sprague dawley; Oral; Gavage/Intubation; dose end: 26 week; group: systemic; systemic / clinical chemistry / alanine aminotransferase (alt/sgpt) / alanine aminotransferase (alt/sgpt) + systemic / clinical chemistry / ….
For data set [6], the system named is rat. Particulars: Sub-acute repeat dose toxicity; sprague dawley; Oral; Gavage/Intubation; dose end: 1 month; group: systemic; systemic / clinical chemistry / protein / protein + systemic / clinical chemistry / alanine aminotransferase (alt/sgpt) / alanine ….
Data set [7] deals with dog. Particulars: Subchronic oral toxicity in nonrodent, beagle, Gavage/Intubation, dose end: 1 month, group: systemic.
The subject of data set [8] is rat. As to conditions: Subchronic oral toxicity in rodents, sprague-dawley, Gavage/Intubation, dose end: 90 day, group: systemic, systemic / in life observation / body weight / body weight gain + systemic / in life observation / clinical signs / exophthalamus + systemic….
For data set [9], the system named is rat. Particulars: Combined chronic toxicity/carcinogenicity, sprague dawley, Oral, Feed, dose end: 24 month, group: systemic.
Data set [10] relates to rat. Particulars: Combined chronic toxicity/carcinogenicity, sprague dawley, Oral, Feed, dose end: 104 week, group: systemic.
The subject of data set [11] is rabbit. As to conditions: Prenatal developmental toxicity study, new zealand white, Oral, Gavage/Intubation, dose end: 18 GD.
For data set [12], the system named is mouse. Particulars: Carcinogenicity; cd1; Oral; Feed; dose end: 18 month; group: systemic; systemic / in life observation / body weight / body weight.
In data set [13] the test system is mouse. As to conditions: Carcinogenicity; cd1; Oral; Feed; dose end: 78 week; group: systemic; systemic / in life observation / body weight / body weight + systemic / in life observation / body weight / body weight gain.
The test system of data set [14] is dog. Particulars: Chronic toxicity, beagle, Oral, Feed, dose end: 52 week, group: systemic.
Data set [15] deals with rat. As to conditions: Subchronic oral toxicity in rodents, sprague dawley, Gavage/Intubation, dose end: 90 day, group: systemic.
Data set [16] has as its system mouse. As to conditions: Sub-acute repeat dose toxicity; b6c3f1; Oral; Gavage/Intubation; dose end: 14 day; group: systemic; systemic / in life observation / clinical signs / distended abdomens + systemic / in life observation / clinical signs / fur (altered ….
The subject of data set [17] is rat. Particulars: Combined chronic toxicity/carcinogenicity; fischer; Oral; Gavage/Intubation; dose end: 2 year; group: systemic; systemic / pathology microscopic / kidney / cyst + systemic / pathology microscopic / kidney / hyperplasia + systemic / pathology ….
Data set [18] concerns mouse. As to conditions: Subchronic oral toxicity in rodents, b6c3f1, Gavage/Intubation, dose end: 13 week, group: systemic, systemic / pathology microscopic / kidney / fibrosis + systemic / pathology microscopic / kidney / inflammation + systemic / pathology ….
For data set [19], the system named is mouse. Particulars: Carcinogenicity, b6c3f1, Oral, Gavage/Intubation, dose end: 2 year, group: systemic.
Data set [20] deals with rat. Particulars: Subchronic oral toxicity in rodents, fischer, Gavage/Intubation, dose end: 13 week, group: systemic.
For data set [21], the system named is rat. Particulars: Subchronic oral toxicity in rodents, sprague dawley, Gavage/Intubation, dose end: 13 week, group: systemic, systemic / pathology microscopic / adrenal gland / congestion + systemic / pathology microscopic / brain / congestion + systemic / pathology….
The subject of data set [22] is rat. Particulars: Subchronic dermal toxicity, sprague dawley, Topical, dose end: 90 day, group: systemic, systemic / pathology microscopic / liver / hypertrophy.
The test system of data set [23] is rat. Particulars: Subchronic oral toxicity in rodents, sprague dawley, Gavage/Intubation, dose end: 90 day, group: systemic, systemic / in life observation / body weight / body weight + systemic / in life observation / body weight / body weight gain.
Data set [24] deals with rat. Particulars: Prenatal developmental toxicity study, sprague dawley, Oral, Gavage/Intubation, dose end: 15 GD.
Setting [25] is: group: maternal, reproductive / reproductive performance / estrous cycle / abnormal.
The mark [26] stands for this setting: group: parental, systemic / in life observation / body weight / body weight gain + systemic / in life observation / clinical signs / salivation + systemic / ….
Where [27] appears, read: systemic / in life observation / body weight / body weight + systemic / in life observation / body weight / body weight gain + systemic / in….
Where [28] appears, read: systemic / organ weight / adrenal gland / absolute + systemic / organ weight / adrenal gland / relative to body weight.
Where [29] appears, read: systemic / organ weight / adrenal gland / absolute + systemic / organ weight / adrenal gland / relative to body weight + systemic / clinical….
The mark [30] stands for this setting: systemic / in life observation / body weight / body weight + systemic / organ weight / thymus / relative to body weight.
Setting [31] is: systemic / in life observation / body weight / body weight + systemic / organ weight / thymus / relative to body weight + systemic / ….
The mark [32] stands for this setting: systemic / clinical chemistry / aspartate aminotransferase (ast/sgot) / aspartate aminotransferase (ast/sgot).
[33] abbreviates: systemic / in life observation / mortality / mortality + systemic / pathology gross / mammary gland / cyst + systemic / pathology gross / ….
Setting [34] is: systemic / in life observation / body weight / body weight + systemic / in life observation / body weight / body weight gain.
Where [35] appears, read: systemic / in life observation / body weight / body weight + systemic / in life observation / body weight / body weight gain + systemic / ….
The mark [36] stands for this setting: group: developmental, developmental / developmental malformation / bone / supernumerary.
Setting [37] is: group: developmental, developmental / developmental malformation / bone / supernumerary + developmental / developmental malformation / bone / short supernumerary….
Setting [38] is: group: maternal, systemic / in life observation / body weight / body weight gain + systemic / in life observation / food consumption / food consumption.
Where [39] appears, read: systemic / in life observation / clinical signs / feces, discoloration.
Where [40] appears, read: systemic / organ weight / adrenal gland / absolute + systemic / organ weight / adrenal gland / relative to body weight + systemic / organ ….
Setting [41] is: systemic / in life observation / body weight / body weight + systemic / organ weight / liver / absolute + systemic / organ weight / liver / ….
The mark [42] stands for this setting: systemic / pathology microscopic / lung / hyperplasia.
The mark [43] stands for this setting: systemic / pathology microscopic / lung / hyperplasia + systemic / pathology microscopic / liver / adenoma + systemic / pathology ….
Setting [44] is: systemic / in life observation / clinical signs / motor activity + systemic / in life observation / body weight / body weight + systemic / ….
The mark [45] stands for this setting: systemic / in life observation / clinical signs / salivation.
Setting [46] is: group: developmental, developmental / developmental malformation / bone / [other] + systemic / in life observation / body weight / fetal weight.
Setting [47] is: group: maternal, systemic / in life observation / body weight / body weight gain + systemic / in life observation / food consumption / food consumption + ….

With `Cc1cc2c(cc1C(F)(F)F)N(C(=O)Nc1ccc(Oc3cccnc3C)nc1)CC2.Cl`, the LEL in data set [1] stood at 1000 mg/kg/day; in data set [2] (setting [25]) it was 20 mg/kg/day; in data set [2] (setting [26]), 2 mg/kg/day; in data set [3] (systemic / in life observation / body weight / body weight gain), 20 mg/kg/day; in data set [4] (setting [28]) it was 2 mg/kg/day; in [5], 2 mg/kg/day. Moreover, the LEL in [6] and in [7] (setting [30]) was 2 mg/kg/day each time. Also, the LOAEL is above 1000 mg/kg/day in data set [1]; above 20 mg/kg/day in [2] (setting [25]); above 20 mg/kg/day in data set [2] (setting [26]); above 200 mg/kg/day in [3] (setting [27]); above 300 mg/kg/day in [4] (setting [29]); above 100 mg/kg/day in data set [5]. Besides, the figures for the LOAEL in data set [6] and in data set [7] (setting [31]) were above 200 mg/kg/day and above 1000 mg/kg/day, respectively. Also, the NEL in data set [1] was 300 mg/kg/day; in [2] (setting [25]), 2 mg/kg/day; in data set [2] (setting [26]) it was 0.2 mg/kg/day; in data set [3] (setting [27]) it was 2 mg/kg/day; in data set [4] (setting [28]) it was below 2 mg/kg/day; in data set [5] it was below 2 mg/kg/day. In addition, the NEL in [6] and in data set [7] (setting [30]) was below 2 mg/kg/day each time. Moreover, the NOAEL in data set [1] was at least 1000 mg/kg/day; in data set [2] (setting [25]), at least 20 mg/kg/day; in [2] (setting [26]), at least 20 mg/kg/day; in data set [3] (setting [27]) it was at least 200 mg/kg/day; in [4] (setting [29]), at least 300 mg/kg/day; in data set [5], at least 100 mg/kg/day. In addition, the NOAEL in [6] is at least 200 mg/kg/day; in [7] (setting [31]) it was at least 1000 mg/kg/day.

Regarding `CC1(C)NC(=O)NC1=O` [5,5-Dimethylhydantoin], the LEL worked out at 1050 mg/kg/day in [8]; 100 mg/kg/day in data set [9] (setting [32]); 1000 mg/kg/day in data set [10] (setting [35]); 500 mg/kg/day in data set [11] (setting [36]); 1000 mg/kg/day in data set [11] (setting [38]); 321 mg/kg/day in data set [12]. The LEL in data set [13] is 1000 mg/kg/day; in [14] (setting [39]), 120 mg/kg/day; in data set [15] (setting [41]) it was 1020 mg/kg/day. For the same molecule, the LOAEL in data set [8] was above 1050 mg/kg/day; in data set [9] (setting [33]) it was 1000 mg/kg/day; in data set [10] (setting [35]), 1000 mg/kg/day; in data set [11] (setting [36]), 500 mg/kg/day; in data set [11] (setting [38]) it was 1000 mg/kg/day; in data set [12], above 1010 mg/kg/day. The LOAEL in data set [13] was 1000 mg/kg/day; in data set [14] (setting [40]), 1510 mg/kg/day; in data set [15] (setting [41]), 1020 mg/kg/day. Also, the NEL in data set [8] is 100 mg/kg/day; in data set [9] (setting [32]), below 100 mg/kg/day; in [10] (setting [34]) it was 300 mg/kg/day; in data set [11] (setting [37]), 100 mg/kg/day; in data set [11] (setting [38]), 500 mg/kg/day; in data set [12] it was 101 mg/kg/day. Further, the NEL was 300 mg/kg/day in data set [13], below 120 mg/kg/day in data set [14] (setting [39]) and 303 mg/kg/day in data set [15] (systemic / organ weight / kidney / absolute + systemic / organ weight / liver / absolute + systemic / organ weight / liver / relative to …). For the same molecule, the NOAEL in [8] is at least 1050 mg/kg/day; in data set [9] (setting [33]), 320 mg/kg/day; in [10] (setting [34]) it was 300 mg/kg/day; in data set [11] (setting [37]), 100 mg/kg/day; in data set [11] (setting [38]), 500 mg/kg/day; in [12] it was at least 1010 mg/kg/day. Further, the NOAEL in data set [13] came to 300 mg/kg/day; in [14] (setting [40]), 342 mg/kg/day; in data set [15] (setting [41]), 303 mg/kg/day.

As to `O=C(O)c1ccccc1` [Benzoic acid], in data set [16], the LEL was 642 mg/kg/day, the LOAEL is above 642 mg/kg/day, the NEL was 321 mg/kg/day and the NOAEL was at least 642 mg/kg/day.

`c1ccc2occc2c1` [2,3-Benzofuran]: the LEL in data set [17] is 30 mg/kg/day; in [18], 250 mg/kg/day; in data set [19] (setting [43]) it was 60 mg/kg/day; in data set [20] (setting [45]) it was 31.2 mg/kg/day. Further, the lowest-observed-adverse-effect level (LOAEL) in [17] was found to be 30 mg/kg/day; in data set [18], 250 mg/kg/day; in data set [19] (setting [42]), 60 mg/kg/day; in data set [20] (setting [44]) it was 125 mg/kg/day. The NEL in data set [17] was below 30 mg/kg/day; in data set [18] it was 125 mg/kg/day; in [19] (setting [43]) it was below 60 mg/kg/day; in data set [20] (setting [45]), below 31.2 mg/kg/day. For the same molecule, the NOAEL in data set [17] is below 30 mg/kg/day; in data set [18] it was 125 mg/kg/day; in data set [19] (setting [42]), below 60 mg/kg/day; in data set [20] (setting [44]), 62.5 mg/kg/day.

As for `ClNc1nc(NCl)nc(NCl)n1` [Trichloromelamine], in [21], the LEL is 150 mg/kg/day, the LOAEL was 150 mg/kg/day, the NEL turned out to be 30 mg/kg/day and the NOAEL was found to be 30 mg/kg/day.

Regarding `CC(=O)N(CCN(C(C)=O)C(C)=O)C(C)=O` [Tetraacetylethylenediamine], the LEL in data set [22] came out at 2000 mg/kg/day; in [23] it was 25 mg/kg/day; in data set [24] (setting [46]), 1000 mg/kg/day; in data set [24] (setting [38]) it was 200 mg/kg/day. The LOAEL in [22] is above 2000 mg/kg/day; in [23], 25 mg/kg/day; in [24] (setting [46]), 1000 mg/kg/day; in data set [24] (setting [38]) it was 200 mg/kg/day. For the same molecule, the NEL in [22] is 200 mg/kg/day; in [23], below 25 mg/kg/day; in [24] (setting [46]), 200 mg/kg/day; in data set [24] (setting [47]), 40 mg/kg/day. The NOAEL in data set [22] was at least 2000 mg/kg/day; in data set [23], below 25 mg/kg/day; in data set [24] (setting [46]), 200 mg/kg/day; in [24] (setting [47]), 40 mg/kg/day.

Usually LOAEL stands for the lowest dose or exposure tested at which an adverse effect was seen. The NOAEL is the highest tested level that showed no adverse finding.
